# Measurements from PMC10343272, “Synthesis and Evaluation of ^99mTc-Labeled PSMA-Targeted Tracers Based on the Lys-Urea-Aad Pharmacophore for Detecting Prostate Cancer with Single Photon Emission Computed Tomography” (Molecules, 2023).
# Where two headings read alike, the source gives them in different places.
# Key:
# PSMA [1] = target: T1, PSMA (Homo sapiens, UniProt Q04609); assay: In vitro competition binding assay ([^18F]DCFPyL displacement on LNCaP cells); conditions: inhibition of [^18F]DCFPyL binding to PSMA-expressing LNCaP cells, n = 3
# T1 construct: host or cells: LNCaP cells
# Experimental: All tested PSMA-targeted ligands inhibited the binding of [^18F]DCFPyL to PSMA-expressing LNCaP cells in a concentration-dependent manner (Figure 2, n = 3).
# The in vitro competition binding assays were performed following our previously published procedures. Briefly, LNCaP cells in RMPI medium with FBS, penicillin, and streptomycin were plated onto 24-well poly-D-lysine coated plates at 200,000 cells/well 48 h prior to binding assay. The growth medium was removed and the cells were rinsed with HEPES-buffered saline (50 mM HEPES, pH 7.5, 0.9% NaCl) two times before 400 µL of HEPES buffer were added to each well. Varying concentrations of PSMA-targeted ligands (50 µL) were added to each well in triplicate before adding 0.1 nmol/50 µL of [^18F]DCFPyL. After the additions, plates were incubated and swirled at 37 °C. After 1 h incubation, the solutions were removed, and cells were washed with HEPES-buffered saline twice. Finally, 400 µL of 0.25% trypsin solution were added to each well. After 10 min incubation, cells were collected for counting using a PerkinElmer (Waltham, MA, USA) Wizard2 2480 automatic gamma counter. The Ki values were analyzed with GraphPad (San Diego, CA, USA) Prism 7 software using nonlinear regression fit.
# PSMA [2] = target: T1, PSMA; conditions: previous observation; cited from earlier work
# T1 sequence (Q04609 whole entry): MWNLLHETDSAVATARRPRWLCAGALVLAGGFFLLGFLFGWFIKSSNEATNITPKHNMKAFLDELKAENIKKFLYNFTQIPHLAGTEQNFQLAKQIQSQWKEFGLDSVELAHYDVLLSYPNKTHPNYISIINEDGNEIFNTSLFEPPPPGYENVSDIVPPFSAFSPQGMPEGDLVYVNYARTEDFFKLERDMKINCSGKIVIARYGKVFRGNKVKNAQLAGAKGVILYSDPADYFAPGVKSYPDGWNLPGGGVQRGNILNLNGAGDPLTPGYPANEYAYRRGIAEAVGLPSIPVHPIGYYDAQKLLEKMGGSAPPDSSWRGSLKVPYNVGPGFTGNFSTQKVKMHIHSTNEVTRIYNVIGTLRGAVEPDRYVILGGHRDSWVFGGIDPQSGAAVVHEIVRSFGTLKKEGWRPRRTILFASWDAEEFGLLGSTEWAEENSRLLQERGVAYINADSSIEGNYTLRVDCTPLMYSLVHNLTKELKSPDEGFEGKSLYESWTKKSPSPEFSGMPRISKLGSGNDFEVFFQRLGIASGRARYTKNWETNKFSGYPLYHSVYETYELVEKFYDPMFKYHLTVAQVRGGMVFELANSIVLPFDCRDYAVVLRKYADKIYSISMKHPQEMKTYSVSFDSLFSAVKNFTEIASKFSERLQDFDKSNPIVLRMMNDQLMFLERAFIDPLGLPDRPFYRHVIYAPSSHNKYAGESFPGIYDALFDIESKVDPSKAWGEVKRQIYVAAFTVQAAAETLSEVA
SMILES,Ki (PSMA [1]),Ki (PSMA [2])
O=C(O)CCC[C@H](NC(=O)N[C@@H](CCCCNC(=O)[C@H](Cc1c2ccccc2cc2ccccc12)NC(=O)[C@H]1CC[C@H](CNC(=O)CN2CCN(CC(=O)O)CCN(CC(=O)O)CCN(CC(=O)O)CC2)CC1)C(=O)O)C(=O)O [HTK03149],–,6.99 nM
NNc1ccc(C(=O)NC[C@H]2CC[C@H](C(=O)N[C@@H](Cc3c4ccccc4cc4ccccc34)C(=O)NCCCC[C@H](NC(=O)N[C@@H](CCC(=O)O)C(=O)O)C(=O)O)CC2)cn1 [KL01099],10.7 nM,–
NNc1ccc(C(=O)NC[C@H]2CC[C@H](C(=O)N[C@@H](Cc3c4ccccc4cc4ccccc34)C(=O)NCCCC[C@H](NC(=O)N[C@@H](CCCC(=O)O)C(=O)O)C(=O)O)CC2)cn1 [HTK03180],11.6 ± 1.5 nM,–

# Continued, in another order:
Ki (PSMA [1]),SMILES,Ki (PSMA [2])
8.96 ± 0.58 nM,NNc1ccc(C(=O)N[C@@H](Cc2ccc3ccccc3c2)C(=O)NCCCC[C@H](NC(=O)N[C@@H](CCCC(=O)O)C(=O)O)C(=O)O)cn1 [KL01127],–
3.11 nM,"NNc1ccc(C(=O)N[C@@H](Cc2ccc3ccccc3c2)C(=O)NCCCC[C@H](NC(=O)N[C@@H](CCC(=O)O)C(=O)O)C(=O)O)cn1 [HYNIC-iPSMA, reference compound]",–
